Data published in patent publication US10774076B2, “Benzazole compounds and methods for making and using the compounds” (Rigel Pharmaceuticals, Inc., priority 2015, dated 2020).
pEC50: −log10 of the molar value.

What was measured:
[1] = system: IL23-p19; assay: Compound screening using DC cells: LPS-induced IL-23 (p19/p40) ELISA in IFNγ-primed dendritic cells differentiated from human PBMC; format: cell-based; conditions: Dendritic cell, human PBMC-derived dendritic cells, LPS 1 μg/ml, 18 hours, 10 pt
Procedure, shortened: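 Dendritic cells were derived from human PBMC over 7 days with GMCSF (100 ng/ml) and IL4 (20 ng/ml), then primed 24 h with 50 ng/ml IFNγ. After 1 h pre-incubation with compound, cells were stimulated with LPS (1 μg/ml final) for 18 h at 37 °C. IL-23 in supernatant measured by p19-capture/p40-detection chemiluminescent ELISA; cytotoxicity checked by CellTiter-Glo.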

[2] = system: IL23p19; assay: LPS Induced IL23p19 in THP-1 Cells (with IFNγ Primed) Assay; format: cell-based; conditions: Homo sapiens, IFNγ primed (50 ng/mL), LPS 1 ug/mL, 18 hours, 10 pt, read-out: IL23-p19 ELISA, THP1-IFNy, LPS, 10 pt EC50
Procedure, shortened: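 IFNγ-primed (50 ng/mL, ~18 h) THP-1 cells in RPMI/10% FBS pre-incubated 1 h with serially diluted compound, then stimulated 18 h at 37 °C with 1 ug/mL LPS. Supernatant IL-23p19 quantified by chemiluminescent sandwich ELISA (anti-IL-12 p40/p70 detection); EC50 from curve fit. Toxicity checked by Cell Titer Glo.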

Row | pEC50 [1] | pEC50 [2] | Structure (SMILES)
1 | 5.24 | 5.97 | Cc1cc(-c2ccc(C(=O)Nc3cc4oc(N5CCOCC5)nc4cc3N3CCC(F)CC3)o2)ccn1 [Compound I-24, N-(5-(4-fluoropiperidin-1-yl)-2-morpholinobenzo[d]oxazol-6-yl)-5-(2-methylpyridin-4-yl)furan-2-carboxamide]
2 | 7.22 | 6.98 | CN(CCN1CCOCC1)c1nc2cc(N3CCCCC3)c(NC(=O)c3csc(-c4cn[nH]c4)n3)cc2o1 [Compound I-54, N-(2-(methyl(2-morpholinoethyl)amino)-5-(piperidin-1-yl)benzo[d]oxazol-6-yl)-2-(1H-pyrazol-4-yl)thiazole-4-carboxamide]
3 | 7.43 | 7.23 | O=C(Nc1cc2oc(N3CCOCC3)nc2cc1N1CCCC1)c1ccc(-c2cn[nH]c2)o1 [Compound I-46, N-(2-morpholino-5-(pyrrolidin-1-yl)benzo[d]oxazol-6-yl)-5-(1H-pyrazol-4-yl)furan-2-carboxamide]
